From ChEMBL document CHEMBL4354823, “Discovery and in Vivo Evaluation of Macrocyclic Mcl-1 Inhibitors Featuring an α-Hydroxy Phenylacetic Acid Pharmacophore or Bioisostere” (J Med Chem, 2019)

What was measured:
in vivo [1] = conditions: Sprague-Dawley, rat, iv, 0.5 mg/kg
in vitro [2] = conditions: human, liver microsomes
in vivo [3] = conditions: Sprague-Dawley, rat, iv, 0.5 mg/kg; remark: listed apart in the source
in vitro [4] = conditions: rat, liver microsomes
in vivo [5] = conditions: Sprague-Dawley, rat, po, 2 mg/kg
physchem [6] = conditions: simulated gastric fluid, pH 1.7
physchem [7] = conditions: simulated gastric fluid, pH 1.7; remark: listed apart in the source
physchem [8] = conditions: simulated intestinal fluid, pH 6.6
[9] = rat, in vivo, iv, 0.5 mg/kg
physchem [10] = conditions: simulated intestinal fluid, pH 6.6; remark: listed apart in the source
in vitro [11] = conditions: pig, LLC-PK1
[12] = Clearance in CD-1 mouse at 1 mg/kg, iv; type: ADME, organism-based; conditions: in vivo
[13] = Unbound clearance in CD-1 mouse at 1 mg/kg, iv; type: ADME, organism-based; conditions: in vivo
[14] = mouse, in vivo, po, 30 mg/kg, 6 h
in vivo [15] = conditions: athymic nude, mouse, plasma, po, 30 mg/kg
[16] = dog, in vivo, iv, 0.5 mg/kg
in vivo [17] = conditions: Beagle, dog, po, 2 mg/kg
[18] = mouse, in vivo, po, 60 mg/kg, 6 h
[19] = Oral bioavailability in CD-1 mouse at 3 mg/kg; type: ADME, organism-based; conditions: in vivo
[20] = rat, in vivo, iv, 0.5 mg/kg; remark: listed apart in the source
in vivo [21] = conditions: athymic nude, mouse, plasma, po, 60 mg/kg
in vivo [22] = conditions: Beagle, dog, iv, 0.5 mg/kg

CN1CC/C=C/[C@H](OCCN2CC(F)C2)[C@@H]2CC[C@H]2CN2C[C@@]3(CCCc4cc(Cl)ccc43)COc3ccc(cc32)[C@@](O)(C(=O)NS(=O)(=O)N(C)C)CC1=O
half-life (in vivo [1]): 4.5 h
microsomal CLint (in vitro [2]): < 14 µL/min/mg
clearance (in vivo [3]): 11.7 mL/min/kg
microsomal CLint (in vitro [4]): < 14 µL/min/mg

COC(=O)[C@@]1(O)CC(=O)N(C)CC/C=C/[C@H](OC)[C@@H]2CC[C@H]2CN2C[C@@]3(CCCc4cc(Cl)ccc43)COc3ccc1cc32
half-life (in vivo [1]): 2.5 h
bioavailability (in vivo [5]): 2%
clearance (in vivo [3]): 43.3 mL/min/kg

CN1CC/C=C/[C@H](OCCN2CCC(F)(F)CC2)[C@@H]2CC[C@H]2CN2C[C@@]3(CCCc4cc(Cl)ccc43)COc3ccc(cc32)[C@@](O)(C(=O)NS(=O)(=O)N(C)C)CC1=O
microsomal CLint (in vitro [2]): 43 µL/min/mg
microsomal CLint (in vitro [4]): < 14 µL/min/mg

CN(C)C(=O)CO[C@H]1/C=C/CCN(C)C(=O)C[C@](O)(C(=O)NS(=O)(=O)N(C)C)c2ccc3c(c2)N(C[C@@H]2CC[C@H]21)C[C@@]1(CCCc2cc(Cl)ccc21)CO3
half-life (in vivo [1]): 3.1 h
microsomal CLint (in vitro [2]): 19 µL/min/mg
clearance (in vivo [3]): 21.7 mL/min/kg
microsomal CLint (in vitro [4]): < 14 µL/min/mg

COC1CN(CCO[C@H]2/C=C/CCN(C)C(=O)C[C@](O)(C(=O)NS(=O)(=O)N(C)C)c3ccc4c(c3)N(C[C@@H]3CC[C@H]32)C[C@@]2(CCCc3cc(Cl)ccc32)CO4)C1
half-life (in vivo [1]): 6.3 h
bioavailability (in vivo [5]): 6%
clearance (in vivo [3]): 58.3 mL/min/kg

CN1CC/C=C/[C@H](OCCOCC(F)F)[C@@H]2CC[C@H]2CN2C[C@@]3(CCCc4cc(Cl)ccc43)COc3ccc(cc32)[C@@](O)(C(=O)NS(=O)(=O)N(C)C)CC1=O
half-life (in vivo [1]): 6.5 h
bioavailability (in vivo [5]): 41%
clearance (in vivo [3]): 0.833 mL/min/kg

CN1CC/C=C/[C@H](OCCN2CCOCC2)[C@@H]2CC[C@H]2CN2C[C@@]3(CCCc4cc(Cl)ccc43)COc3ccc(cc32)[C@@](O)(C(=O)NS(=O)(=O)N(C)C)CC1=O
half-life (in vivo [1]): 2.8 h
microsomal CLint (in vitro [2]): 21 µL/min/mg
bioavailability (in vivo [5]): 9%
clearance (in vivo [3]): 15 mL/min/kg
microsomal CLint (in vitro [4]): < 14 µL/min/mg

CO[C@H]1/C=C/CCN(C)C(=O)C[C@](O)(C(=O)O)c2ccc3c(c2)N(C[C@@H]2CC[C@H]21)C[C@@]1(CCCc2cc(Cl)ccc21)CO3
half-life (in vivo [1]): 6.8 h
remaining at 0.5 h, 1 µM (physchem [6]): 49%
bioavailability (in vivo [5]): 0%
remaining at 1 h, 1 µM (physchem [7]): 26%
remaining at 0.5 h, 1 µM (physchem [8]): 100%
CL [9]: 31%
clearance (in vivo [3]): 23.3 to 23.8 mL/min/kg
remaining at 1 h, 1 µM (physchem [10]): 100%
Papp (in vitro [11]): 4.5 ×10⁻⁶ cm/s

CN1CC/C=C/[C@H](OCCN2CCS(=O)(=O)CC2)[C@@H]2CC[C@H]2CN2C[C@@]3(CCCc4cc(Cl)ccc43)COc3ccc(cc32)[C@@](O)(C(=O)NS(=O)(=O)N(C)C)CC1=O
half-life (in vivo [1]): 2.2 h
microsomal CLint (in vitro [2]): < 14 µL/min/mg
bioavailability (in vivo [5]): 6%
clearance (in vivo [3]): 60 mL/min/kg
microsomal CLint (in vitro [4]): < 14 µL/min/mg

CN1CC/C=C/[C@H](OCCCN2CC(F)(F)C2)[C@@H]2CC[C@H]2CN2C[C@@]3(CCCc4cc(Cl)ccc43)COc3ccc(cc32)[C@@](O)(C(=O)NS(=O)(=O)N(C)C)CC1=O
half-life (in vivo [1]): 5.5 h
bioavailability (in vivo [5]): 52%
clearance (in vivo [3]): 3.33 mL/min/kg

CO[C@H]1/C=C/CCN(C)C(=O)C[C@](O)(C(=O)NS(C)(=O)=O)c2ccc3c(c2)N(C[C@@H]2CC[C@H]21)C[C@@]1(CCCc2cc(Cl)ccc21)CO3
half-life (in vivo [1]): 2.6 h
bioavailability (in vivo [5]): 8%
clearance (in vivo [3]): 26.7 mL/min/kg

CO[C@H]1/C=C/C[C@H](C)[C@@H](C)S(=O)(=O)NC(=O)c2ccc3c(c2)N(C[C@@H]2CC[C@H]21)C[C@@]1(CCCc2cc(Cl)ccc21)CO3 [TAPOTOCLAX]
clearance [12]: 0.5 mL/min/kg
half-life (in vivo [1]): 18.2 h
CL free [13]: 67 mL/min/kg
remaining at 0.5 h, 1 µM (physchem [6]): 90%
Cp(f) [14]: 0.368 µM
concentration at 6 h (in vivo [15]): 49.3 µM
CL free [16]: 22.3 mL/min/kg
bioavailability (in vivo [17]): 27%
bioavailability (in vivo [5]): 34%
Cp(f) [18]: 0.529 µM
remaining at 1 h, 1 µM (physchem [7]): 84%
remaining at 0.5 h, 1 µM (physchem [8]): 90%
bioavailability [19]: 31%
CL free [20]: 138 mL/min/kg
clearance (in vivo [3]): 1 mL/min/kg
concentration at 6 h (in vivo [21]): 70.9 µM
remaining at 1 h, 1 µM (physchem [10]): 81%
clearance (in vivo [22]): 0.333 mL/min/kg
